Source: patent US6646009B2, “N-(aryl)-2-arylethenesulfonamides and therapeutic uses thereof” (Temple University — Of Commonwealth System of Higher …, priority 2001, dated 2003)

Key:
[1] = test system: DU145; assay: GI50 growth inhibition, DU145; type: cell-based
Procedure: (§1) The effect of the N-(aryl)-2-arylethenesulfonamides on normal fibroblasts and on tumor cells was determined by the assay described by Latham et al, Oncogene 12:827-837 (1996). Normal diploid lung human fibroblasts (HFL-1) or tumor cells (prostate, colorectal, breast, glial, pancreatic ovarian or leukemic) were plated in 6-well dishes at a cell density of 1.0×10^5 cells per 35-mm^2 well. The plated cells were treated 24 hours later with various concentrations of N-(aryl)-2-arylethenesulfonamide dissolved in dimethyl sulfoxide (DMSO). The total number of viable cells was determined 96 hours later by trypsinizing the wells and counting the number of viable cells, as determined by trypan blue exclusion, using a hemacytometer. Each compound tested (Exs. 1-17) inhibited cell proliferation when tested at a concentration of 30 micromolar. […] Normal HFL cells were treated with the same compounds under the same conditions of concentration and time.
(§2) A dose response curve was plotted for the tumor growth inhibitory effect of (E)-4-methoxystyryl-N-4-fluorophenyl sulfonamide on the estrogen-unresponsive breast cell line BT-20 (FIG. 1). The GI50 (the concentration of drug resulting in 50% net loss of growth inhibition) was determined as 10 μM. […] The (E)-4-methoxystyryl-N-4-fluorophenyl sulfonamide GI50 for the same compound against the cell lines listed in Table 7 was determined in the same manner.

[2] = test system: PC-3; assay: GI50 growth inhibition, PC-3; type: cell-based; settings: Homo sapiens; PC-3, Prostate
Procedure: as §1, §2

[3] = test system: LNCAP; assay: GI50 growth inhibition, LNCAP; type: cell-based; settings: Homo sapiens, Prostate
Procedure: as §1, §2

[4] = test system: DLD-1; assay: GI50 growth inhibition, DLD-1; type: cell-based
Procedure: as §1, §2

[5] = test system: HCT-116; assay: GI50 growth inhibition, HCT-116; type: cell-based; settings: Homo sapiens; HCT-116, Colo-rectal
Procedure: as §1, §2

[6] = test system: COLO-320; assay: GI50 growth inhibition, COLO-320; type: cell-based; settings: Homo sapiens; COLO-320, Colo-rectal
Procedure: as §1, §2

[7] = test system: estrogen-unresponsive breast cell line BT-20; assay: GI50 growth inhibition, BT-20; type: cell-based
Procedure: as §1, §2

[8] = test system: SK-br-3; assay: GI50 growth inhibition, SK-br-3; type: cell-based; settings: Homo sapiens; SK-br-3, Breast
Procedure: as §1, §2

[9] = test system: U87; assay: GI50 growth inhibition, U87; type: cell-based; settings: Homo sapiens, U-87 MG; U87, Glioblastoma
Procedure: as §1, §2

[10] = test system: MIA-PaCa-2; assay: GI50 growth inhibition, MIA-PaCa-2; type: cell-based; settings: Homo sapiens; MIA-PaCa-2, Pancreatic
Procedure: as §1, §2

[11] = test system: SK-ov-3; assay: GI50 growth inhibition, SK-ov-3; type: cell-based; settings: Homo sapiens; SK-ov-3, Ovarian
Procedure: as §1, §2

[12] = test system: CEM; assay: GI50 growth inhibition, CEM; type: cell-based; settings: Homo sapiens, CCRF-CEM, Leukemic
Procedure: as §1, §2

[13] = test system: normal fibroblast line HFL-1; assay: GI50 growth inhibition, HFL-1; type: cell-based; settings: Homo sapiens, HFL1; HFL-1, Normal diploid lung
Procedure: as §1, §2

[14] = test system: BT20 cells; assay: Induction of apoptosis: PARP cleavage Western blot, BT20; type: cell-based; settings: 20 μM, 96 hours
Text: (§3) The caspases and the ICE-family proteases are cysteine proteases which are activated during apoptosis (Patel et al., FASEB 10:587-597, 1996). The cleavage of poly(ADP-ribose) polymerase (PARP), which is a target of caspase-3, apopain, and several other activated proteases, is a widely used and accepted marker for apoptosis (Nicholson et al., Nature 376(6533):37-43, 1995; Lippke et al., J. Biol. Chemistry 271:1825, 1996). For this assay, BT20 cells, an estrogen receptor negative breast carcinoma, and HFL-1 cells, normal lung fibroblasts, were treated with either (E)-4-methoxystyryl-N-4-fluorophenyl sulfonamide at a final concentration of 20 μM or dimethyl sulfoxide (DMSO) for 96 hours. The cells were then lysed in RIPA buffer and 100 μg of total cellular protein from each sample was resolved on a 10% SDS-polyacrylamide gel. The proteins were then Western blotted onto PROTRAN filter paper (S/S) and the filter was then probed with antibody (Boehringer Mannheim) specific for PARP. This antibody recognizes both the 116 kDa full length PARP and the 83 kDa cleaved product. […] The BT20 cells treated with DMSO for the same amount of time also had no activation of the apoptotic pathway.

[15] = test system: HFL-1 cells; assay: Induction of apoptosis: PARP cleavage Western blot, HFL-1; type: cell-based, human; settings: 20 μM, 96 hours
Text: as §3

[16] = test system: H157; assay: GI50 growth inhibition, H157; type: cell-based; settings: result in words
Procedure: The effect of the N-(aryl)-2-arylethenesulfonamides on normal fibroblasts and on tumor cells was determined by the assay described by Latham et al, Oncogene 12:827-837 (1996). Normal diploid lung human fibroblasts (HFL-1) or tumor cells (prostate, colorectal, breast, glial, pancreatic ovarian or leukemic) were plated in 6-well dishes at a cell density of 1.0×10^5 cells per 35-mm^2 well. The plated cells were treated 24 hours later with various concentrations of N-(aryl)-2-arylethenesulfonamide dissolved in dimethyl sulfoxide (DMSO). The total number of viable cells was determined 96 hours later by trypsinizing the wells and counting the number of viable cells, as determined by trypan blue exclusion, using a hemacytometer. Each compound tested (Exs. 1-17) inhibited cell proliferation when tested at a concentration of 30 micromolar. […]
as §2, with “1).” for “1). The GI50 (the concentration of drug resulting in 50% net loss of growth inhibition) was determined as 10 μM.”
The GI50 of (E)-4-methoxystyryl-N-3-fluoro-4-methoxyphenyl sulfonamide was determined for the following cell lines: BT20, DU145, H157 and DLD-1.

COc1ccc(/C=C/S(=O)(=O)Nc2ccc(F)cc2)cc1 [Example 4, (E)-4-methoxystyryl-N-4-fluorophenyl sulfonamide]
GI50 ([1]; Homo sapiens, DU-145, DU145, Prostate): 10 µM
GI50 [2]: 20 µM
GI50 [3]: 20 µM
GI50 ([4]; Homo sapiens, DLD-1, Colo-rectal): 15 µM
GI50 [5]: 20 µM
GI50 [6]: 5 µM
GI50 ([7]; Homo sapiens, BT-20 (BT2O), Breast): 10 µM
GI50 [8]: 30 µM
GI50 [9]: 20 µM
GI50 [10]: 7 µM
GI50 [11]: 15 µM
GI50 [12]: 30 µM
GI50 [13]: 50 µM
PARP cleavage (83 kDa product, marker for apoptosis) [14]: presence of the 83 kDa PARP cleavage product
PARP cleavage (83 kDa product, marker for apoptosis) [15]: no cleavage of the full length PARP

COc1ccc(/C=C/S(=O)(=O)Nc2ccc(OC)c(F)c2)cc1 [Example 5, (E)-4-methoxystyryl-N-3-fluoro4-methoxyphenyl sulfonamide]
GI50 compared with (E)-4-methoxystyryl-N-4-fluorophenyl sulfonamide ([1]; DU145, result in words): in essential agreement
GI50 compared with (E)-4-methoxystyryl-N-4-fluorophenyl sulfonamide ([4]; DLD-1, result in words): in essential agreement
GI50 compared with (E)-4-methoxystyryl-N-4-fluorophenyl sulfonamide ([7]; BT20, result in words): in essential agreement
GI50 compared with (E)-4-methoxystyryl-N-4-fluorophenyl sulfonamide [16]: in essential agreement
